# Molecular target: human mGluR7 (Homo sapiens (Human), UniProt Q14831)
# Experiment: Inositol monophosphate production assay (IP1 assay), inhibition of L-AP4 response
# Format: cell-based
# Conditions: mean IC50 from at least two independent experiments; HEK293 cells transiently transfected with mGluR7, Gqtop and EAAC1; IP1 production vs EC80 L-AP4
# From the text: Inositol Monophosphate Production Assay (IP1 Assay):
# HEK293 cells were transiently transfected with mGluR7 by electroporation and seeded in a poly-ornithine coated 96-well plate at the density of 150 000 cells/well. To allow the monitoring of receptor activity through measurements of inositol monophosphate (IP1) production, mGluR7 was transfected with a chimeric Gq/Gi protein (Gqtop). and was also co-transfected with EAAC1, a glutamate transporter, to avoid influence of extracellular glutamate. Cells were cultured in Dulbecco's Modified Eagle Medium (DMEM, Invitrogen, Cergy Pontoise, France), supplemented with 10% of Fetal Bovine Serum (FBS). Medium was changed by Glutamax™ (Invitrogen, Cergy Pontoise, France) to reduce extracellular glutamate concentration 3 hours before stimulation
# IP1 production was determined using the IP-One HTRF kit (CisBio Bioassays), a competitive immunoassay using cryptate-labeled anti-IP1 antibody and d2-labeled IP, according to the manufacturer's recommendations. All points were realized in triplicate.
# Data were analyzed with Prism 6 software (GraphPadSoftware, San Diego, Calif.). Typically, in each experiment, a four-parameter concentration-response curve equation was used to fit data and potency (IC50) is estimated as logarithms (log IC50). Data were calculated as % of the control mGluR7 agonist L-AP4 response, defined as the response that is generated upon addition of an EC80-equivalent concentration of L-AP4.
# The Table 2 below represents the mean IC50 obtained from at least two independent experiments.
# Sequence of human mGluR7 (Q14831 35-915): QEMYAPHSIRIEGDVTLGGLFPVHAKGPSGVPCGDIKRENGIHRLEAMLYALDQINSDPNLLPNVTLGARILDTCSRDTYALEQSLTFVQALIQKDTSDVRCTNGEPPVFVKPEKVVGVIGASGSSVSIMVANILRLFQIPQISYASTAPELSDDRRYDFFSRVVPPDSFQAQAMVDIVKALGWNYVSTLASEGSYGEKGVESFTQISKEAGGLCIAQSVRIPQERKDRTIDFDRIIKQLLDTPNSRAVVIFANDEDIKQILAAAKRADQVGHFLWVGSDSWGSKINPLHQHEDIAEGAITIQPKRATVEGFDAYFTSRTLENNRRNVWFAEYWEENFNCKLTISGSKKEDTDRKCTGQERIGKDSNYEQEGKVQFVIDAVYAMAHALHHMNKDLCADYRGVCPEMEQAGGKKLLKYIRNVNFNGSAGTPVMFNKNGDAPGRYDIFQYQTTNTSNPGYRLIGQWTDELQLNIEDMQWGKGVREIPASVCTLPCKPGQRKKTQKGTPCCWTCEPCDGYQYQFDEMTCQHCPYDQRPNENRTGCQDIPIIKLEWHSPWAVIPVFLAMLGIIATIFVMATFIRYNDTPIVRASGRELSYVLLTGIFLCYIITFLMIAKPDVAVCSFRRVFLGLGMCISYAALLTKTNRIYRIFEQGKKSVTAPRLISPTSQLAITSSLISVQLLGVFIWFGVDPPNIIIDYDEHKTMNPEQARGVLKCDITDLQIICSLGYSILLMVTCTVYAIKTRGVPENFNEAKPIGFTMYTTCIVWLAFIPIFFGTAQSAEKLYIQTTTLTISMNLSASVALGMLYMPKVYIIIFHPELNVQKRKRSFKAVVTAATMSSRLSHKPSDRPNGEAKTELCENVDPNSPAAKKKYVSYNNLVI
row,IC50 [nM],Compound
1,1000 to 30000,"COc1ccc(C(F)(F)F)c(C2CCc3c(cnn(-c4ncccn4)c3=O)C2)c1 (centres unmarked) [Example 73, 6-(5-methoxy-2-(trifluoromethyl)phenyl)-2-(pyrimidin-2-yl)-5,6,7,8-tetrahydrophthalazin-1(2H)-one]"
2,1000 to 30000,"Cc1ccc(C2CCc3c(cnn(-c4nc(C)cc(C)n4)c3=O)C2)c(C)c1 (centres unmarked) [Example 36, 6-(2,4-dimethylphenyl)-2-(4,6-dimethylpyrimidin-2-yl)-5,6,7,8-tetrahydrophthalazin-1(2H)-one]"
3,< 500,"Cc1ccc(C2CCc3c(cnn(-c4ncccc4C)c3=O)C2)c(C)c1 (centres unmarked) [Example 20, 6-(2,4-dimethylphenyl)-2-(3-methylpyridin-2-yl)-5,6,7,8-tetrahydrophthalazin-1(2H)-one]"
4,< 500,"COc1cccc(C2CCc3c(cnn(-c4ccccn4)c3=O)C2)c1C (centres unmarked) [Example 60, 6-(3-methoxy-2-methylphenyl)-2-(pyridin-2-yl)-5,6,7,8-tetrahydrophthalazin-1(2H)-one]"
5,500 to 1000,"COc1cc(C)ccc1C1CCc2c(cnn(-c3ccccn3)c2=O)C1 (centres unmarked) [Example 67, 6-(2-methoxy-4-methylphenyl)-2-(pyridin-2-yl)-5,6,7,8-tetrahydrophthalazin-1(2H)-one]"
6,< 500,"COc1cccc(C2CCc3c(cnn(-c4ncc(C5CC5)cn4)c3=O)C2)c1C (centres unmarked) [Example 125, 2-(5-cyclopropylpyrimidin-2-yl)-6-(3-methoxy-2-methylphenyl)-5,6,7,8-tetrahydrophthalazin-1(2H)-one]"
7,500 to 1000,"Cc1ccc(C)c(C2CCc3c(cnn(-c4ncccn4)c3=O)C2)c1 (centres unmarked) [Example 81, 6-(2,5-dimethylphenyl)-2-(pyrimidin-2-yl)-5,6,7,8-tetrahydrophthalazin-1(2H)-one]"
8,< 500,"COc1ccc(F)c(C2CCc3c(cnn(-c4ncccn4)c3=O)C2)c1F (centres unmarked) [Example 90, 6-(2,6-difluoro-3-methoxyphenyl)-2-(pyrimidin-2-yl)-5,6,7,8-tetrahydrophthalazin-1(2H)-one]"
9,< 500,"COc1cccc(-n2ncc3c(c2=O)CCC(c2ccc(C)cc2C)C3)n1 (centres unmarked) [Example 13, 6-(2,4-dimethylphenyl)-2-(6-methoxypyridin-2-yl)-5,6,7,8-tetrahydrophthalazin-1(2H)-one]"
10,< 500,"Cc1ccc(C2CCc3c(cnn(-c4cc(O)ccn4)c3=O)C2)c(C)c1 (centres unmarked) [Example 26, 6-(2,4-dimethylphenyl)-2-(4-hydroxypyridin-2-yl)-5,6,7,8-tetrahydrophthalazin-1(2H)-one]"
11,< 500,"Cc1ccc(C2CCc3c(cnn(-c4ncc(F)cn4)c3=O)C2)c(C)c1 (centres unmarked) [Example 54, 6-(2,4-dimethylphenyl)-2-(5-fluoropyrimidin-2-yl)-5,6,7,8-tetrahydrophthalazin-1(2H)-one]"
12,1000 to 30000,"Cc1c(OCc2ccccc2)cccc1C1CCc2c(cnn(-c3ncccn3)c2=O)C1 (centres unmarked) [Example 106, 6-(3-(benzyloxy)-2-methylphenyl)-2-(pyrimidin-2-yl)-5,6,7,8-tetrahydrophthalazin-1(2H)-one]"
13,< 500,"COc1cccc(C2CCc3c(cnn(-c4ncc(OCCO)cn4)c3=O)C2)c1C (centres unmarked) [Example 119, 2-(5-(2-hydroxyethoxy)pyrimidin-2-yl)-6-(3-methoxy-2-methylphenyl)-5,6,7,8-tetrahydrophthalazin-1(2H)-one]"
14,< 500,"Cc1cnc(-n2ncc3c(c2=O)CCC(c2cccc(OC4CC4)c2C)C3)nc1 (single isomer, unassigned; (-)) [Example 132, (−)-6-(3-cyclopropoxy-2-methylphenyl)-2-(5-methylpyrimidin-2-yl)-5,6,7,8-tetrahydrophthalazin-1(2H)-one]"
15,< 500,"Cc1ccc(C2CCc3c(cnn(-c4ccncc4)c3=O)C2)c(C)c1 (centres unmarked) [Example 50, 6-(2,4-dimethylphenyl)-2-(pyridin-4-yl)-5,6,7,8-tetrahydrophthalazin-1(2H)-one]"
16,1000 to 30000,"COc1ccc(C2CCc3c(cnn(-c4ccccn4)c3=O)C2)cc1 (centres unmarked) [Example 3, 6-(4-methoxyphenyl)-2-(pyridin-2-yl)-5,6,7,8-tetrahydrophthalazin-1(2H)-one]"
17,< 500,"COCCCOc1cccc(C2CCc3c(cnn(-c4ncccn4)c3=O)C2)c1C (centres unmarked) [Example 100, 6-(3-(3-methoxypropoxy)-2-methylphenyl)-2-(pyrimidin-2-yl)-5,6,7,8-tetrahydrophthalazin-1(2H)-one]"
18,< 500,"CN1CCc2c(C3CCc4c(cnn(-c5ccccn5)c4=O)C3)cccc21 (centres unmarked) [Example 69, 6-(1-methylindolin-4-yl)-2-(pyridin-2-yl)-5,6,7,8-tetrahydrophthalazin-1(2H)-one]"
19,< 500,"Cc1ccc(C2CCc3c(cnn(-c4nccc(C5CC5)n4)c3=O)C2)c(C)c1 (centres unmarked) [Example 37, 2-(4-cyclopropylpyrimidin-2-yl)-6-(2,4-dimethylphenyl)-5,6,7,8-tetrahydrophthalazin-1(2H)-one]"
20,< 500,"Cc1cc(Cl)ccc1C1CCc2c(cnn(-c3ncccn3)c2=O)C1 (centres unmarked) [Example 98, 6-(4-chloro-2-methylphenyl)-2-(pyrimidin-2-yl)-5,6,7,8-tetrahydrophthalazin-1(2H)-one]"
21,1000 to 30000,"COCCOc1cccc(C2CCc3c(cnn(-c4ncccn4)c3=O)C2)c1C (centres unmarked) [Example 105, 6-(3-(2-methoxyethoxy)-2-methylphenyl)-2-(pyrimidin-2-yl)-5,6,7,8-tetrahydrophthalazin-1(2H)-one]"
22,< 500,"COc1cccc(C2CCc3c(cnn(-c4ccc(O)cn4)c3=O)C2)c1C (centres unmarked) [Example 38, 2-(5-hydroxypyridin-2-yl)-6-(3-methoxy-2-methylphenyl)-5,6,7,8-tetrahydrophthalazin-1(2H)-one]"
23,< 500,"Cc1ccc(C2CCc3c(cnn(-c4ncccc4Cl)c3=O)C2)c(C)c1 (centres unmarked) [Example 8, 2-(3-chloropyridin-2-yl)-6-(2,4-dimethylphenyl)-5,6,7,8-tetrahydrophthalazin-1(2H)-one]"
24,< 500,"Cc1ccc(N2CCCC2)cc1C1CCc2c(cnn(-c3ncccn3)c2=O)C1 (centres unmarked) [Example 77, 6-(2-methyl-5-(pyrrolidin-1-yl)phenyl)-2-(pyrimidin-2-yl)-5,6,7,8-tetrahydrophthalazin-1(2H)-one]"
25,< 500,"COc1cccc(C2CCc3c(cnn(-c4ncc(Cl)cn4)c3=O)C2)c1C (centres unmarked) [Example 43, 2-(5-chloropyrimidin-2-yl)-6-(3-methoxy-2-methylphenyl)-5,6,7,8-tetrahydrophthalazin-1(2H)-one]"
26,< 500,"Cc1ccc(C2CCc3c(cnn(-c4ncc(C5CC5)cn4)c3=O)C2)c(C)c1 (centres unmarked) [Example 109, 2-(5-cyclopropylpyrimidin-2-yl)-6-(2,4-dimethylphenyl)-5,6,7,8-tetrahydrophthalazin-1(2H)-one]"
27,500 to 1000,"Cc1ccc(C2CCc3c(cnn(-c4nccs4)c3=O)C2)c(C)c1 (centres unmarked) [Example 32, 6-(2,4-dimethylphenyl)-2-(thiazol-2-yl)-5,6,7,8-tetrahydrophthalazin-1(2H)-one]"
28,1000 to 30000,"Cc1ccc(C2CCc3c(cnn(-c4cn(C)cn4)c3=O)C2)c(C)c1 (centres unmarked) [Example 34, 6-(2,4-dimethylphenyl)-2-(1-methyl-1H-imidazol-4-yl)-5,6,7,8-tetrahydrophthalazin-1(2H)-one]"
29,< 500,"Cc1ccc(OC2CC2)cc1C1CCc2c(cnn(-c3ncccn3)c2=O)C1 (centres unmarked) [Example 84, 6-(5-cyclopropoxy-2-methylphenyl)-2-(pyrimidin-2-yl)-5,6,7,8-tetrahydrophthalazin-1(2H)-one]"

# Reference: patent publication US11414395B2, “Heterocyclic compounds as modulators of mGluR7” (PRAGMA Therapeutics, priority 2017, dated 2022)
